Reference: PubChem BioAssay (NCI)
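These data come from cells grown in 96-well plates and exposed to compound for 48 hours at five concentrations. GI50 marks 50% less growth. At the TGI there is no net growth.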

Key:
Test in all cases: growth of human tumour cells (NCI), 48 h
786-0 renal = tested on: 786-0 renal
DMS 114 small cell lung = tested on: DMS 114 small cell lung
DMS 273 small cell lung = tested on: DMS 273 small cell lung
KM12 colon = tested on: KM12 colon
OVCAR-8 ovarian = tested on: OVCAR-8 ovarian
SK-MEL-28 melanoma = tested on: SK-MEL-28 melanoma
U251 CNS = tested on: U251 CNS
UACC-62 melanoma = tested on: UACC-62 melanoma
SF-295 CNS = tested on: SF-295 CNS
MCF7 breast = tested on: MCF7 breast

Cn1c(=O)c2[nH]cnc2n(CC(N)=O)c1=O
TGI (786-0 renal): > 100 µM
TGI (DMS 114 small cell lung): > 100 µM
TGI (DMS 273 small cell lung): > 100 µM
TGI (KM12 colon): > 100 µM
TGI (OVCAR-8 ovarian): > 100 µM
TGI (SK-MEL-28 melanoma): > 100 µM
TGI (U251 CNS): > 100 µM
TGI (UACC-62 melanoma): > 100 µM

COC1C2c3cc4c(cc3CC(C#N)(c3ccccc32)N1C(=O)c1ccccc1)OCO4 (configuration not stated)
TGI (786-0 renal): > 100 µM
TGI (DMS 114 small cell lung): > 100 µM
TGI (DMS 273 small cell lung): > 100 µM
TGI (KM12 colon): > 100 µM
TGI (OVCAR-8 ovarian): > 100 µM
TGI (SF-295 CNS): > 100 µM
TGI (SK-MEL-28 melanoma): > 100 µM
TGI (U251 CNS): > 100 µM
TGI (UACC-62 melanoma): > 100 µM

COC1OC(C)C2OC(C)(C)OC2C1OC(C)=O (configuration not stated)
TGI (786-0 renal): > 100 µM
TGI (DMS 273 small cell lung): > 100 µM
TGI (KM12 colon): > 100 µM
TGI (OVCAR-8 ovarian): > 100 µM
TGI (SF-295 CNS): > 100 µM
TGI (SK-MEL-28 melanoma): > 100 µM
TGI (U251 CNS): > 100 µM
TGI (UACC-62 melanoma): > 100 µM

CCOC(=O)C(CNc1ccc(O)cc1)NC(=O)c1ccccc1 (configuration not stated)
TGI (786-0 renal): > 100 µM
TGI (DMS 114 small cell lung): > 100 µM
TGI (DMS 273 small cell lung): > 100 µM
TGI (KM12 colon): > 100 µM
TGI (OVCAR-8 ovarian): > 100 µM
TGI (SF-295 CNS): > 100 µM
TGI (SK-MEL-28 melanoma): > 100 µM
TGI (U251 CNS): > 100 µM
TGI (UACC-62 melanoma): > 95 µM

C[C@]12CCNC(=O)C=C1CC[C@@H]1C2CC[C@@]2(C)C1CC[C@@H]2OC(=O)COc1ccc(N(CCCl)CCCl)cc1 (some centres not stated)
TGI (786-0 renal): 3.19 µM
TGI (DMS 273 small cell lung): 12.2 µM
TGI (KM12 colon): 24.4 µM
TGI (MCF7 breast): 14.8 µM
TGI (OVCAR-8 ovarian): 17.8 µM
TGI (SF-295 CNS): 30.6 µM
TGI (SK-MEL-28 melanoma): 36.3 µM
TGI (U251 CNS): 11.1 µM
TGI (UACC-62 melanoma): 6.41 µM

NCCCCCCNCc1cccc2ccccc12
TGI (786-0 renal): > 100 µM
TGI (DMS 114 small cell lung): > 100 µM
TGI (KM12 colon): > 100 µM
TGI (OVCAR-8 ovarian): > 100 µM
TGI (SF-295 CNS): > 100 µM
TGI (SK-MEL-28 melanoma): > 100 µM
TGI (U251 CNS): > 100 µM
TGI (UACC-62 melanoma): > 100 µM

O=C(N/N=C/c1cc(Cl)cc(Cl)c1[O-])c1ccccc1.O=C(N/N=C/c1cc(Cl)cc(Cl)c1[O-])c1ccccc1.[Co+2]
GI50 (786-0 renal): 10.4 µM
TGI (786-0 renal): > 100 µM
GI50 (DMS 114 small cell lung): 10.6 µM
TGI (DMS 114 small cell lung): 67.9 µM
GI50 (KM12 colon): 27.3 µM
TGI (KM12 colon): > 100 µM
GI50 (OVCAR-8 ovarian): 21.1 µM
TGI (OVCAR-8 ovarian): > 100 µM
GI50 (SF-295 CNS): 20.8 µM
TGI (SF-295 CNS): 97.6 µM
GI50 (U251 CNS): 33.5 µM
TGI (U251 CNS): > 100 µM
GI50 (UACC-62 melanoma): 12.2 µM
TGI (UACC-62 melanoma): 51.6 µM

C/C=C/COC(=O)CO[N+](=O)[O-]
TGI (786-0 renal): > 100 µM
TGI (DMS 114 small cell lung): > 100 µM
TGI (DMS 273 small cell lung): > 100 µM
TGI (KM12 colon): > 100 µM
TGI (OVCAR-8 ovarian): > 100 µM
TGI (SF-295 CNS): > 100 µM
TGI (U251 CNS): > 100 µM

Cc1ccc(C)c(NC(=O)CC2SC(=Nc3ccccc3Cl)NC2=O)c1 (configuration not stated)
TGI (786-0 renal): > 100 µM
TGI (DMS 114 small cell lung): > 100 µM
TGI (DMS 273 small cell lung): > 100 µM
TGI (KM12 colon): > 100 µM
TGI (OVCAR-8 ovarian): > 100 µM
TGI (SF-295 CNS): > 100 µM
TGI (SK-MEL-28 melanoma): > 100 µM
TGI (U251 CNS): > 100 µM
TGI (UACC-62 melanoma): > 100 µM

CCCCCCCCCCCCCC(=O)CSCCNC(=O)CCNC(=O)[C@@H](O)C(C)(C)COP(=O)(O)OP(=O)(O)OCC1OC(n2cnc3c(N)ncnc32)C(O)C1OP(=O)(O)O (some centres not stated)
TGI (786-0 renal): 30.1 µM
TGI (DMS 114 small cell lung): 33.3 µM
TGI (DMS 273 small cell lung): 26.2 µM
TGI (KM12 colon): 39 µM
TGI (OVCAR-8 ovarian): 83.5 µM
TGI (SF-295 CNS): 27.3 µM
TGI (SK-MEL-28 melanoma): 34.3 µM
TGI (U251 CNS): 39.2 µM
TGI (UACC-62 melanoma): 29.5 µM

CCN(CC)CCn1[nH]c2c3ccc(=O)cc3sc3c(NCCN)ccc1c32
TGI (786-0 renal): 8.94 µM
TGI (DMS 114 small cell lung): 1.52 µM
TGI (KM12 colon): 2.75 µM
TGI (OVCAR-8 ovarian): 12.7 µM
TGI (SF-295 CNS): 8.07 µM
TGI (SK-MEL-28 melanoma): 3.28 µM
TGI (U251 CNS): 5.18 µM
TGI (UACC-62 melanoma): 1.48 µM

CCOC(=O)/C(=C/c1ccc(N(CCC#N)CCC#N)cc1C)NC(=O)/C=C/c1ccccc1
TGI (786-0 renal): > 100 µM
TGI (DMS 114 small cell lung): > 100 µM
TGI (DMS 273 small cell lung): > 100 µM
TGI (KM12 colon): > 100 µM
TGI (OVCAR-8 ovarian): > 100 µM
TGI (SF-295 CNS): > 100 µM
TGI (SK-MEL-28 melanoma): > 100 µM
TGI (U251 CNS): > 100 µM
TGI (UACC-62 melanoma): > 100 µM

CCOc1ccc(O)cc1[P+](c1ccccc1)(c1ccccc1)c1ccccc1
TGI (786-0 renal): 20.2 µM
TGI (DMS 273 small cell lung): 10.1 µM
TGI (KM12 colon): 11.7 µM
TGI (OVCAR-8 ovarian): 15.7 µM
TGI (SF-295 CNS): 19.9 µM
TGI (SK-MEL-28 melanoma): 22.6 µM
TGI (U251 CNS): 15 µM
TGI (UACC-62 melanoma): 17.8 µM

Cc1cc(=O)[nH]c(CNC(=O)c2cccc(C(=O)NCc3cc(=O)[nH]c(C)n3)c2)n1
TGI (786-0 renal): > 100 µM
TGI (DMS 114 small cell lung): > 100 µM
TGI (DMS 273 small cell lung): > 100 µM
TGI (KM12 colon): > 100 µM
TGI (OVCAR-8 ovarian): > 100 µM
TGI (SF-295 CNS): > 100 µM
TGI (SK-MEL-28 melanoma): > 100 µM
TGI (U251 CNS): > 100 µM
TGI (UACC-62 melanoma): > 100 µM

COC(=O)/C=c1\s/c(=C\C(=O)OC)c2ccccc12
TGI (786-0 renal): > 100 µM
TGI (DMS 114 small cell lung): > 100 µM
TGI (DMS 273 small cell lung): > 100 µM
TGI (KM12 colon): > 100 µM
TGI (OVCAR-8 ovarian): > 100 µM
TGI (SF-295 CNS): > 100 µM
TGI (SK-MEL-28 melanoma): > 100 µM
TGI (U251 CNS): > 100 µM
TGI (UACC-62 melanoma): > 100 µM

CN(/N=C/c1cccc2cccnc12)c1c([N+](=O)[O-])cc([N+](=O)[O-])cc1[N+](=O)[O-]
TGI (786-0 renal): > 100 µM
TGI (DMS 114 small cell lung): > 100 µM
TGI (DMS 273 small cell lung): > 100 µM
TGI (KM12 colon): > 100 µM
TGI (OVCAR-8 ovarian): > 100 µM
TGI (SF-295 CNS): > 100 µM
TGI (SK-MEL-28 melanoma): > 100 µM
TGI (U251 CNS): > 100 µM
TGI (UACC-62 melanoma): > 100 µM

c1ccc(P(=C2c3ccccc3-c3ccccc32)(c2ccccc2)c2ccccc2)cc1
TGI (786-0 renal): 34 µM
TGI (DMS 114 small cell lung): 7.78 µM
TGI (DMS 273 small cell lung): 19.2 µM
TGI (KM12 colon): 5.58 µM
TGI (OVCAR-8 ovarian): 12.7 µM
TGI (SF-295 CNS): 16.1 µM
TGI (SK-MEL-28 melanoma): 20.2 µM
TGI (U251 CNS): 9.18 µM
TGI (UACC-62 melanoma): 14.1 µM

CC(=O)OC1CC[C@@]2(C)C(CC[C@]3(C)C2CC=C2[C@@H]4C(C)[C@H](C)CCC4(C)CCC23C)[C@@]1(C)C(=O)O (some centres not stated)
TGI (786-0 renal): 52.9 µM
TGI (DMS 114 small cell lung): 39.6 µM
TGI (DMS 273 small cell lung): 46.8 µM
TGI (KM12 colon): 53.9 µM
TGI (MCF7 breast): 25.8 µM
TGI (OVCAR-8 ovarian): 70 µM
TGI (SF-295 CNS): 35.5 µM
TGI (SK-MEL-28 melanoma): 52 µM
TGI (U251 CNS): 58.2 µM
TGI (UACC-62 melanoma): 35.3 µM

Cc1nc2sccn2c1C(=O)NC(=O)Nc1ccc(Cl)cc1
TGI (786-0 renal): > 100 µM
TGI (DMS 114 small cell lung): > 100 µM
TGI (DMS 273 small cell lung): > 100 µM
TGI (KM12 colon): > 100 µM
TGI (OVCAR-8 ovarian): > 100 µM
TGI (SF-295 CNS): > 100 µM
TGI (SK-MEL-28 melanoma): > 100 µM
TGI (U251 CNS): > 100 µM
TGI (UACC-62 melanoma): > 100 µM

O=C(CCc1nnc2s/c(=C\c3ccccc3Cl)c(=O)n12)Nc1cc(Cl)ccc1Cl
TGI (786-0 renal): > 100 µM
TGI (DMS 114 small cell lung): > 100 µM
TGI (KM12 colon): > 100 µM
TGI (OVCAR-8 ovarian): > 100 µM
TGI (SF-295 CNS): > 100 µM
TGI (SK-MEL-28 melanoma): > 100 µM
TGI (U251 CNS): > 100 µM
TGI (UACC-62 melanoma): > 100 µM

C=CCOC(=O)C1CCC(=O)N1C(=O)C(Cl)Cl (configuration not stated)
TGI (786-0 renal): > 100 µM
TGI (DMS 114 small cell lung): > 100 µM
TGI (DMS 273 small cell lung): > 100 µM
TGI (KM12 colon): > 100 µM
TGI (OVCAR-8 ovarian): > 100 µM
TGI (SF-295 CNS): > 100 µM
TGI (SK-MEL-28 melanoma): > 100 µM
TGI (U251 CNS): > 100 µM
TGI (UACC-62 melanoma): > 100 µM
